Results taken from patent publication US20070203194A1, “Ion channel modulators” (SCION PHARMACEUTICALS, INC., priority 2004, published 2007).

Each compound was assayed on calcium channel (e.g., L-type, N-type, etc.) current (assay: HEK assay (whole-cell patch clamp of calcium channel currents in transiently transfected HEK-293T/17 cells)). Conditions: whole-cell voltage clamp, holding potential −100 mV.
Format: cell-based
Procedure: HEK-293T/17 cells are transiently transfected in a similar manner as described in FuGENE 6 Package Insert Version 7, April 2002, Roche Applied Science, Indianapolis, Ind. The cells are plated at 2.5×10^5 cells in 2 mL in a 6-well plate in incubator for one night and achieve a 30-40% confluence. In a small sterile tube, add sufficient serum-free medium as diluent for FuGENE Transfection Reagent (Roche Applied Science, Indianapolis, Ind.), to a total volume of 100 μL. Add 3 μL of FuGENE 6 Reagent directly into this medium. The mixture is tapped gently to mix. 2 μg of DNA solution (0.8-2.0 μg/μL) is added to the prediluted FuGENE 6 Reagent from above. The DNA/Fugene 6 mixture is gently pipetted to mix the contents and incubated for about 15 minutes at room temperature. The complex mixture is then added to the HEK-293T/17 cells, distributing it around the well, and swirled to ensure even dispersal. The cells are returned to the incubator for 24 hrs. The transfected cells are then replated at density 2.5×10^5 in a 35 mm dish with 5 glass coverslips and grow in low serum (1%) media for 24 hrs. Coverslips with isolated cells are then transferred into chamber and calcium channel (e.g., L-type, N-type, etc.) current or other currents for counter screening are recorded from the transiently transfected HEK-293T/17 cells.
The whole-cell voltage clamp configuration of the patch clamp technique is employed to evaluate voltage-dependent calcium currents essentially as described by Thompson and Wong (1991) J. Physiol., 439: 671-689. To record calcium channel (e.g., L-type, N-type, etc.) currents for evaluation of inhibitory potency of compounds (steady-state concentration-response analysis), five pulses of 20-30 ms voltage steps to about +10 mV (the peak of the current voltage relationship) are delivered at five Hz every 30 second from a holding potential at −100 mV. Compound evaluations were carried out essentially as described by Sah D W and Bean B P (1994) Mol Pharmacol. 45(1):84-92. Table 3 contains IC50's for representative compounds.

Compound	IC50
COc1ccc(C(=O)CSc2nnc(CNc3ccc(F)cc3)n2-c2ccc(C)cc2)cc1 [Compound 5]	378 nM
COc1ccccc1-c1nnc(SCC(=O)Nc2ccccn2)n1-c1ccc(C)cc1 [Compound 27]	695 nM
COc1ccc(C(=O)CSc2nnc(-c3ccccc3OC)n2-c2ccc(C)cc2)cc1 [Compound 28]	572 nM
